Results published in patent US20260191863A1, “PYRROLOPYRIMIDINE COMPOSITIONS FOR TREATMENT OF ITK MEDIATED CONDITIONS” (ACLARIS THERAPEUTICS, INC., priority 2022, published 2026).
Several values for one entry are separate records, joined by “and”; a condition that tells them apart may be missing. Equal entries are not always repeated. Where two headings read alike, the source gives them in different places.

How the values were obtained:
[1] = system: IL15 stimulated IFNγ protein; experiment: Pre-clinical human whole blood IL-15/IFNγ (5 hr); assay type: cell-based
JAK3 = molecular target: T1, JAK3 (Homo sapiens, UniProt P52333); experiment: Cell IC50 JAK3 hPBMC IL-2/pSTAT5; assay type: cell-based
T1 construct: IL-2/pSTAT5; endogenous in cells; host or cells: human PBMC
T1 sequence (P52333 1-1124): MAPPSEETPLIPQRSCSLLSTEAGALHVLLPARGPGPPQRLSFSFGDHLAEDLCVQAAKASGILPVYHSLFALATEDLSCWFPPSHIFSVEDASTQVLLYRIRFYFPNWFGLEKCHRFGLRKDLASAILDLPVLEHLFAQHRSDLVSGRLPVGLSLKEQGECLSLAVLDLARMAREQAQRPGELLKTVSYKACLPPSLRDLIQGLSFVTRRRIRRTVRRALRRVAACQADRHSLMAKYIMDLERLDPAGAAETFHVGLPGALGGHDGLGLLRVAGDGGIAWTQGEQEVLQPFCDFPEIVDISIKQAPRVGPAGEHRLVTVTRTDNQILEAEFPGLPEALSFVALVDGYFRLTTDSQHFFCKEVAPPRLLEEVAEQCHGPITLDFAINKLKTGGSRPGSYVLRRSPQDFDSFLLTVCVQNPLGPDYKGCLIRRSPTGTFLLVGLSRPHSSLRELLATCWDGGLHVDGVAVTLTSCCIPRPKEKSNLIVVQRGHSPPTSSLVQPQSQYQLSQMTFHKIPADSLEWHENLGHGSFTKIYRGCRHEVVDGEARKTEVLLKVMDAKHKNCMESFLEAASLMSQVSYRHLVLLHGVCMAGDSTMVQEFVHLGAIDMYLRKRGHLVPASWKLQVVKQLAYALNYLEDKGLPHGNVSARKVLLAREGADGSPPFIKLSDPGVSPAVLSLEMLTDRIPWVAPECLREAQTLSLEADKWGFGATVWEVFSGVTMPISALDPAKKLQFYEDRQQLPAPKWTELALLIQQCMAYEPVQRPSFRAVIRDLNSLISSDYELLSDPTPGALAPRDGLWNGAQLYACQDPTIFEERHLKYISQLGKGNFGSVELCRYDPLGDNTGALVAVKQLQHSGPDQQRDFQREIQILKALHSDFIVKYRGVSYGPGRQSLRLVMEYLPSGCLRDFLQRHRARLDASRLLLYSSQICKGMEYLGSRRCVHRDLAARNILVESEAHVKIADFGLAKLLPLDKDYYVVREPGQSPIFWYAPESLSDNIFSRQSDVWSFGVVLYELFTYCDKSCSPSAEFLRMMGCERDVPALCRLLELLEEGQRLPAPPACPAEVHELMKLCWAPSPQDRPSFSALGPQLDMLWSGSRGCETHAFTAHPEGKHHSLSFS

[2] = system: IL15 stimulated IFNγ protein; experiment: MAD ex vivo PD: IL15 stimulated IFNγ protein; assay type: in vivo; settings: Homo sapiens
From the text: Exploratory Endpoints—Mean change from baseline in cellular, extracellular (secreted), and/or message markers of inflammation.
EC50 and IC50 data for αCD3 & αCD28 stimulated IL2mRNA, IL15 stimulated IFNγ protein, and αCD3 & IL15 stimulated IFNγ protein is shown in table 9.

experimental colitis = experiment: Mouse colitis model vs ritlecitinib and tofacitinib, histological damage; assay type: in vivo; settings: proximal/distal colon and ileum
Method: […] experimental colitis data-Histological damage was evaluated for the proximal/distal colon and ileum. Representative data shown here is from the distal colon-across all three regions of GI tissues analyzed.

ITK & JAK (IFNγ protein) [3] = experiment: SAD ex vivo PD: αCD3/IL15 stimulated IFNγ protein production; assay type: in vivo, human; settings: for EC50: Homo sapiens; for Inhibition of dual ITK and JAK3-stimulated IFNγ protein production: SAD higher dose cohorts
From the text: Summary of SAD data: FIGS. 4-8 and 9-13 show the SAD dose response, SAD exposure response, and SAD calculated response at Cmax by dose respectively for ITK (IL2 mRNA), ITK (IFNγ mRNA), JAK3 (pSTAT5, lymph), JAK3 (pSTAT5, CD3′ T), and ITK & JAK (IFNγ protein). Clinical and pre-clinical IC50 data for ITK (IL2 mRNA), ITK (IFNγ mRNA), JAK3 (pSTAT5, lymph), JAK3 (pSTAT5, CD3^+ T), and ITK & JAK (IFNγ protein) from the SAD study is shown in table 4.

ITK & JAK (IFNγ protein) [4] = experiment: Pre-clinical human whole blood αCD3 + IL-15/IFNγ (18 hr); assay type: cell-based
ITK (IL2 mRNA) = experiment: Pre-clinical human whole blood αCD3/28/IL-2 mRNA (2 hr); assay type: cell-based
[5] = 13 week toxicology and toxicokinetic study in rats; assay type: in vivo, rat
From the text: Purpose: Evaluation of toxicity and toxicokinetic (TK) for Compound I, following daily dosing for 13 weeks.

[6] = Homo sapiens, read-out: Pre-clinical EC50

For `C=CC(=O)N1C[C@H](Nc2ncnc3[nH]cc([C@H]4CC4(F)F)c23)CC[C@@H]1C` [Compound I, 1-((2S,5R)-5-((5-((R)-2,2-difluorocyclopropyl)-7H-pyrrolo[2,3-d]pyrimidin-4-yl)amino)-2-methylpiperidin-1-yl)prop-2-en-1-one], the “Potency relative to Ritlecitinib, IL-15/IFNγ (5 hr)” value [1] was “(6.5 fold*)”, the IC50 ([1]; Homo sapiens) was 0.0029 µg/mL and 8 nM and the EC50 ([1]; Homo sapiens, 5 h, read-out: Human Whole Blood EC50, IL-15/IFNγ (5 hr)) was 8 nM. For the same molecule, the “Potency relative to Ritlecitinib, JAK3 hPBMC IL-2/pSTAT5” value (JAK3) was 2.3 fold, the IC50 (JAK3; hPBMC, IL-2/pSTAT5) was 23 nM and the JAK specificity (JAK3; vs other JAK kinases like JAK2) was “completely specific for JAK3”. The EC50 [2] was 0.0022 µg/mL and 6.1 nM, the “Protection from histological damage vs comparator drugs” value (experimental colitis) was “more protective than both comparator drugs” and the EC50 (ITK & JAK (IFNγ protein) [3]; SAD study, read-out: Clinical EC50) was 7.3 nM. The EC50 (ITK & JAK (IFNγ protein) [3]; read-out: SAD EC50) was 0.0026 µg/mL and 7.3 nM, the “Inhibition of dual ITK and JAK3-stimulated IFNγ protein production” value (ITK & JAK (IFNγ protein) [3]) was “Near complete inhibition” and the “Inhibition of dual ITK and JAK3-stimulated IFNγ protein production” value (ITK & JAK (IFNγ protein) [3]; maintained for 12 hours) was > 50%. For the same molecule, the “Potency relative to Ritlecitinib, αCD3 + IL-15/IFNγ (18 hr)” value (ITK & JAK (IFNγ protein) [4]) was “(3.3 fold*)”, the IC50 (ITK & JAK (IFNγ protein) [4]; Homo sapiens) was 0.0036 µg/mL and 10.1 nM and the EC50 (ITK & JAK (IFNγ protein) [4]; Homo sapiens, 18 h, read-out: Human Whole Blood EC50, αCD3 + IL-15/IFNγ (18 hr)) was 10 nM. For the same molecule, the EC50 (ITK & JAK (IFNγ protein) [4]; [6]) was 10.2 ± 4.1 nM, the EC50 (ITK & JAK (IFNγ protein) [4]; human whole blood dual stimulation, read-out: Human Compound I Cp to reach HWB dual stim EC50 (in vitro report)) was ≥ 4.19 ng/mL and the “Potency relative to Ritlecitinib, αCD3/28/IL-2 mRNA (2 hr)” value (ITK (IL2 mRNA)) was “(35 fold*)”. The IC50 (ITK (IL2 mRNA); Homo sapiens) was 0.0077 µg/mL and 21.3 nM, the EC50 (ITK (IL2 mRNA); Homo sapiens, 2 h, read-out: Human Whole Blood EC50, αCD3/28/IL-2 mRNA (2 hr)) was 21 nM and the EC50 (ITK (IL2 mRNA); [6]) was 21.3 ± 4.3 nM. For the same molecule, the Nephrotoxicity ([5]; Compound I toxicity studies) was “no evidence of nephrotoxicity”, the Cmax ([5]; in vivo, 80 mg/kg, rat, NOAEL 80 mpk) was 13800 ng/mL and the AUC(0-t) ([5]; in vivo, 80 mg/kg, rat, NOAEL 80 mpk, read-out: AUC0-24 h at NOAEL) was 45000 ng·h/mL. The Adverse effects ([5]; rat, 5, 20, 80 mpk, 13 weeks) was “No adverse effects observed” and the “No observed adverse effect level” value ([5]; rat, daily dosing 13 weeks) was 80 mpk.
